Test results from patent US9458095B2, “Oligo-benzamide compounds and their use in treating cancers” (The Board of Regents of the University of Texas System, priority 2011, dated 2016).

How the values were obtained:
Assay type in all cases: cell-based
WxxLF motif on AR = assay: Gal4-3WxxLF and AR-Gal4 (hARGAL4/PSAenhGAL4-luc) luciferase reporter assays; settings: 100 nM peptidomimetic, 48 h, absence of androgens
Experimental: FIGS. 1A-D. Oligobenzamide control of C4-2 cell proliferation. (FIG. 1A) Chemical structure of T6. (FIG. 1B) C4-2 cells were transiently transfected with Gal4-3WxxLF promoter or (FIG. 1C) with synthetic hARGAL4 and the PSAenhGAL4-luc reporter. Cells were maintained for 48 h in the absence of androgens and with either 100 nM of peptidomimetic or volume equivalent of vehicle (DMSO) control and luciferase activity measured. (FIG. 1D) Peptidomimetics knocked down ligand independent proliferation in C4-2 cells
Ligand independent activation involves the WxxLF motif, whose tertiary structure has not been crystallographically resolved. Indeed, binding partners of AR through this WxxLF motif have not been determined. […] Based on this model, the inventors designed three peptidomimetics T6, T21 and T26 to mimic the ^435WxxLF^439 motif on AR and to target PPIs through this domain (FIG. 1A). The screening strategy involved the use of synthetic Gal4-3WxxLF (Gal4 reporter driven by 3 copies of the WxxLF motif) (FIG. 1B) and AR-Gal4 constructs (wt AR with its DNA binding domain replaced by Gal4 DNA binding domain) (from Dr. Dehm, U. Minnesota) (FIG. 1C) […]. T21, T26, or T6 (but not the control T6R) knocked down the basal ligand independent transcription from this WxxLF driven promoters. Further, these peptidomimetics abrogated ligand independent proliferation of C4-2 cells (FIG. 1D).

ARwt = molecular target: T1, ARwt (Homo sapiens, UniProt P10275); assay: ARE-luciferase reporter in PC-3 cells expressing ARwt; settings: 1 nM DHT, 100 nM peptidomimetic, 48 h
T1 construct: expressed in transfected cells; host or cells: PC-3 cells (A3); M12 cells (A8)
T1 sequence (P10275 1-920): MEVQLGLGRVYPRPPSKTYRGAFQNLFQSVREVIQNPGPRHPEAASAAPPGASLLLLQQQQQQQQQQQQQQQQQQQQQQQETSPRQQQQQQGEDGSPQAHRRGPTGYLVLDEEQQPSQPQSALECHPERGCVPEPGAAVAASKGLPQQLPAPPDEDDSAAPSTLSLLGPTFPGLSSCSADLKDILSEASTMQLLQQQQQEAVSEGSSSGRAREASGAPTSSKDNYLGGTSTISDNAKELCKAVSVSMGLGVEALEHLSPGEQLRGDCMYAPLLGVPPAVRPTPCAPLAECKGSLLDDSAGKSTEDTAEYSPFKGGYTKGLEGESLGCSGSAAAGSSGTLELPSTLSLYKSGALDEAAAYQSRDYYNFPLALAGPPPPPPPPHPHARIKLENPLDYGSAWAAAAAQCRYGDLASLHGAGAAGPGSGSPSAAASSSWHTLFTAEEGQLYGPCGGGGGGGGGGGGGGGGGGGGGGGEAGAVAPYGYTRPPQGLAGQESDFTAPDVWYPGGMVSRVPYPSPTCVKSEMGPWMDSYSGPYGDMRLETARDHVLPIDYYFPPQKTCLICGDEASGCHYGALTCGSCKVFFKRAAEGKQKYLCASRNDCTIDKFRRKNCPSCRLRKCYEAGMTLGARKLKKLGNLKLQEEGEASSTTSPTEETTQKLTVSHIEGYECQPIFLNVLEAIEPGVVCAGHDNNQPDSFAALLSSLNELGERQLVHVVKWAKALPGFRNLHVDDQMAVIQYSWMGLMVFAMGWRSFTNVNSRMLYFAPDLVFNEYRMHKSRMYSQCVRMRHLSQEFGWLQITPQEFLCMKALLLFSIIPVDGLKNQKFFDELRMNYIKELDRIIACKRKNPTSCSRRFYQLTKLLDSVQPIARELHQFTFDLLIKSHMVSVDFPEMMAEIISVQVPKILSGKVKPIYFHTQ
Experimental: FIGS. 2A-D. Oligobenzamide control of PC3 cell proliferation. (FIG. 2A) Structure of AR deletion mutants with numbered exons (FIG. 2B) Effect of D2 and T6 on basal (AI) and AD transcription. PC-3 cells were transiently transfected with ARE-luciferase along with plasmids expressing ARwt (FIG. 2B), ARv7 (FIG. 2C) or ARΔ1 (FIG. 2D). Cells were maintained for 48 h either without (EtOH) or with (1 nM DHT) and in the presence of 100 nM of peptidomimetic or volume equivalent of vehicle (DMSO) control. Luciferase assay results are shown. Data is normalized to the basal level of expression with AR wt in PC3 cells.
Since the WxxLF motif is also present in the truncated forms of the androgen receptor, the inventors then evaluated the ability of the peptidomimetics to block ARv7-driven transcription from a minimal ARE luciferase reporter. […] These findings were confirmed with a synthetic AR with point mutations in the WxxLF motif (data not shown).

wtAR = molecular target: T2, wtAR (Homo sapiens, UniProt P10275); assay: Rat probasin-luciferase reporter in M12 cells with ARwt; settings: 100 nM peptidomimetic, 48 h
T2 construct: expressed in transfected cells; host or cells: PC-3 cells (A3); M12 cells (A8)
T2 sequence (P10275 1-920): T1 sequence (P10275 1-920)
Experimental: (§1) FIG. 5. Effect of T6 on basal level of ARE expression in M12 cells. M12 cells were transiently transfected with the rat probasin-luciferase reporter and either ARwt or ARv7. Cells were maintained for 48 h without (EtOH) and in the presence of 100 nM of peptidomimetic or volume equivalent of vehicle (DMSO) control or 10 μM of MDV3100. Luciferase assay results are shown.

ARv7 = molecular target: T3, ARv7 (Homo sapiens, UniProt P10275); assay: Rat probasin-luciferase reporter in M12 cells with ARv7; set-up: expressed in transfected cells; host or cells: M12 cells (A9); settings: 100 nM peptidomimetic, 48 h
T3 sequence (P10275 1-644 isoform P10275-3): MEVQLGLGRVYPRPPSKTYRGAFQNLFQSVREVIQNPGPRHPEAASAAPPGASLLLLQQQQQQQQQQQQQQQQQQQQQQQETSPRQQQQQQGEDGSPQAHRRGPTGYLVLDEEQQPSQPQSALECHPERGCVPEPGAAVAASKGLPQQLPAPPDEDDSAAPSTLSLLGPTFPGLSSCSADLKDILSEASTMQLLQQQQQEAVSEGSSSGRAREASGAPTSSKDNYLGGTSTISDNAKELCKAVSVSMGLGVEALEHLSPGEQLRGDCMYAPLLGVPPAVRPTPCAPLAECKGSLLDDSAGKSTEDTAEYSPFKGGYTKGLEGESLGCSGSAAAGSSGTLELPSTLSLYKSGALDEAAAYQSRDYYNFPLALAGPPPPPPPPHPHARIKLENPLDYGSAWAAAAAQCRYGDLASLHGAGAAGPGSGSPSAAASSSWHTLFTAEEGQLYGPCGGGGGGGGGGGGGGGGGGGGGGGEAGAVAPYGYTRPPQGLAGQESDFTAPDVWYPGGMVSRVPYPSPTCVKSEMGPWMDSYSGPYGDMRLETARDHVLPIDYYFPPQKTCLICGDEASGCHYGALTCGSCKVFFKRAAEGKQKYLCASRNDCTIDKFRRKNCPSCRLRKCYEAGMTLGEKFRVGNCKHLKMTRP
Experimental: as §1

CC(C)COc1cc(C(N)=O)ccc1NC(=O)c1ccc(NC(=O)c2ccc([N+](=O)[O-])c(OCCc3ccc4ccccc4c3)c2)c(OCC(C)C)c1 [T6]
basal ligand independent transcription from WxxLF driven promoters (WxxLF motif on AR): knocked down
Ligand dependent transcription mediated by ARwt (ARwt): able to suppress
expression of rat probasin reporter in M12 cells driven by wtAR (wtAR): able to independently knock down
expression of rat probasin reporter in M12 cells driven by ARv7 (ARv7): able to independently knock down
